In patent publication US20230257347A1 (priority 2020, published 2023):
pEC50, pIC50: −log10 of the molar value. Structures can show the parent of a compound that is named as a salt.

Experiments:
[1] = target: T1, Cholecystokinin Receptor A (CCKAR) (Homo sapiens, UniProt P32238); experiment: Calcium flux assay, CCKAR; type: cell-based
T1 sequence (P32238 1-428): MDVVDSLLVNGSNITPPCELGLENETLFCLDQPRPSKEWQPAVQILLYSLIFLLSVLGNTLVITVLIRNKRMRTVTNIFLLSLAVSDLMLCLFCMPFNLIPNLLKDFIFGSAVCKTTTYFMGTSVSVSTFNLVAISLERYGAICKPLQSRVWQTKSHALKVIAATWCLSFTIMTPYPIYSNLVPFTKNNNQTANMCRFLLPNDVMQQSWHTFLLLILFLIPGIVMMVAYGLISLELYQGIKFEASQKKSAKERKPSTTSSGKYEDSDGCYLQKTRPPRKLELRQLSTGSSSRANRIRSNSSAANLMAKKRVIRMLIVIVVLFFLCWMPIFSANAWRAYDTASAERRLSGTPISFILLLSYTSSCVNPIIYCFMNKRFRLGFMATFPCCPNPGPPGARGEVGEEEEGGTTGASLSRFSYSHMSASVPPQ

[2] = target: T2, Serotonin transporter (SERT) (Homo sapiens, UniProt P31645); experiment: cell-based
T2 construct: expressed in transfected cells
T2 sequence (P31645 whole entry): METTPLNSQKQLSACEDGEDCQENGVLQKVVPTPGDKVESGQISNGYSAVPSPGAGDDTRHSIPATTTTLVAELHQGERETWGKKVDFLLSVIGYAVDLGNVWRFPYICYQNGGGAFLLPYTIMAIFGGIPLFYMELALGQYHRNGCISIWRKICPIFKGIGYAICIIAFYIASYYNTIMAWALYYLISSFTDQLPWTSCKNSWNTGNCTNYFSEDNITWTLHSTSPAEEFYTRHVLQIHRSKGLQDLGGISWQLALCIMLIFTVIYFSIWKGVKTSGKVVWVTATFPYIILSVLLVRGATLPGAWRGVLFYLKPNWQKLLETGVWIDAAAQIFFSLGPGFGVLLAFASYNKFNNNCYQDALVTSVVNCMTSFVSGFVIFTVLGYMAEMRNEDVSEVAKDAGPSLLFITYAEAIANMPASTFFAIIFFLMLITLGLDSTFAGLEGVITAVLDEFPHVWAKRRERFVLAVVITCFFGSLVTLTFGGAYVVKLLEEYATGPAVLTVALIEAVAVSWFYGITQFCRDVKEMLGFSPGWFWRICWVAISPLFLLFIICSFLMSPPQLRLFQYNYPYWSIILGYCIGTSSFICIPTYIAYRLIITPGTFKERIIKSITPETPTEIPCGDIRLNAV

[3] = target: NAV1.5 (tetrodotoxin-resistant voltage-gated sodium channel) (Homo sapiens, UniProt Q14524); experiment: cell-based
[4] = target: T3, Nuclear Hormone Glucocorticoid Receptor (GR) (Homo sapiens, UniProt P04150); experiment: NHR Protein Interaction assay, GR; type: cell-based
T3 sequence (P04150 1-777): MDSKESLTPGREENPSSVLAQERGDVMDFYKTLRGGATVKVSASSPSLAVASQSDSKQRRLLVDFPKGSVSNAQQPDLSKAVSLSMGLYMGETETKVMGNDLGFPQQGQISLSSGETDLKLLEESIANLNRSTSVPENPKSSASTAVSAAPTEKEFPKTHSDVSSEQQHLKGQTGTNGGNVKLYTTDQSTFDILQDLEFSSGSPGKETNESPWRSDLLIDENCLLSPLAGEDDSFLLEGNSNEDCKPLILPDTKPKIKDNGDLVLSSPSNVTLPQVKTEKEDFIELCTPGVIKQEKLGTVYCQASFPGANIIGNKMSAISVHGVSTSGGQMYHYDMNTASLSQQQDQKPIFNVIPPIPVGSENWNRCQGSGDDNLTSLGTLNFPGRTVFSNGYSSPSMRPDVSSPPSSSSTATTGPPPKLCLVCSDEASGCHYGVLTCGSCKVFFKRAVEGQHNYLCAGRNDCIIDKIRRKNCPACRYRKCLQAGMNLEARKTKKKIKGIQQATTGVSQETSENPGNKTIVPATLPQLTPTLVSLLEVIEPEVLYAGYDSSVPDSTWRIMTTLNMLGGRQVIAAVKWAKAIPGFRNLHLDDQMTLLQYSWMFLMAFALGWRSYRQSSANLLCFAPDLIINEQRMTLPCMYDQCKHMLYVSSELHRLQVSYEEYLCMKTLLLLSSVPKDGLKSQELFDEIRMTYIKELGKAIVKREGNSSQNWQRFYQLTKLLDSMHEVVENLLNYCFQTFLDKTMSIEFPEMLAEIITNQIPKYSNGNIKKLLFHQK

[5] = target: Muscarinic acetylcholine Receptor M3 (CHRM3) (Homo sapiens, UniProt P20309); experiment: cell-based
Sequence of Muscarinic acetylcholine Receptor M3 (CHRM3) (P20309 whole entry): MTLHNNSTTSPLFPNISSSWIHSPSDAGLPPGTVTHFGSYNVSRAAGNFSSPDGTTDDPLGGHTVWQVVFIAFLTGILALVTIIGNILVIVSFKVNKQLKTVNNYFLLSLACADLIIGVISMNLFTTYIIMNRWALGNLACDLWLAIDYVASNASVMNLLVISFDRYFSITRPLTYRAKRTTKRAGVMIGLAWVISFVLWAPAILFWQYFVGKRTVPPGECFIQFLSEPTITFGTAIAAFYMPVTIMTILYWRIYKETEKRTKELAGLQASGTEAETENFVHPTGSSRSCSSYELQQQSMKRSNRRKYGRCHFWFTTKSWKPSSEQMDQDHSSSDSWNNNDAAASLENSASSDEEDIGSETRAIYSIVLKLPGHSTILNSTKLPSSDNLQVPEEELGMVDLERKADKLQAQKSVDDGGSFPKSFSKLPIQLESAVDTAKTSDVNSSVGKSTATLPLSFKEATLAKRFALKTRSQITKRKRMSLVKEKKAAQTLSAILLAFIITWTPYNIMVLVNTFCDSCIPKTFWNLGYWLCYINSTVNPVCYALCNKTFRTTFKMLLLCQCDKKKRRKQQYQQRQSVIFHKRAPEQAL

[6] = target: Histamine Receptor H2 (HRH2) (Homo sapiens, UniProt P25021); experiment: cAMP assay, HRH2; type: cell-based
Sequence of Histamine Receptor H2 (HRH2) (P25021 whole entry): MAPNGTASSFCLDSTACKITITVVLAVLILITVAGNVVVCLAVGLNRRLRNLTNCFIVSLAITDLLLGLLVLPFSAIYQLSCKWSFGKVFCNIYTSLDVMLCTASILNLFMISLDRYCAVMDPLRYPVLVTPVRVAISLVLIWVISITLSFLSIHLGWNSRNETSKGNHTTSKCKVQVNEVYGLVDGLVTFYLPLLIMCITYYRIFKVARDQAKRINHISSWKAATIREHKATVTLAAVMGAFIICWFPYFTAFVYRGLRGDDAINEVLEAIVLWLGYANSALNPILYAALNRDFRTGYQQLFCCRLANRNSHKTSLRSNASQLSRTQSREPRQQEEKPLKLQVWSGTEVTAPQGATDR

[7] = target: Opioid Receptor Delta 1 (OPRD1) (Homo sapiens, UniProt P41143); experiment: cAMP assay, OPRD1; type: cell-based
Sequence of Opioid Receptor Delta 1 (OPRD1) (P41143 whole entry): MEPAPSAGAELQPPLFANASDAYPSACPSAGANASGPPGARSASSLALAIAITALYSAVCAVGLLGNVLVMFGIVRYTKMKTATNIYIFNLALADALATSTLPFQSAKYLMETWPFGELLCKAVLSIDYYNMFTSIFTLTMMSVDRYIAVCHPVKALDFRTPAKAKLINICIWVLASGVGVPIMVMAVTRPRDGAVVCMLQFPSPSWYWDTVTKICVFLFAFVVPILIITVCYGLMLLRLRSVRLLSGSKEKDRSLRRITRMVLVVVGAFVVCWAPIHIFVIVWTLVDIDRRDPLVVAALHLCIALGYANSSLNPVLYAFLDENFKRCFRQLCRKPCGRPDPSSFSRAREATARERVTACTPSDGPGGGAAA

[8] = target: T4, Dopamine transporter (DAT) (Homo sapiens, UniProt Q01959); experiment: Monoamine transporter uptake assay (fluorescent substrate), DAT; type: cell-based
T4 construct: expressed in transfected cells
T4 sequence (Q01959 whole entry): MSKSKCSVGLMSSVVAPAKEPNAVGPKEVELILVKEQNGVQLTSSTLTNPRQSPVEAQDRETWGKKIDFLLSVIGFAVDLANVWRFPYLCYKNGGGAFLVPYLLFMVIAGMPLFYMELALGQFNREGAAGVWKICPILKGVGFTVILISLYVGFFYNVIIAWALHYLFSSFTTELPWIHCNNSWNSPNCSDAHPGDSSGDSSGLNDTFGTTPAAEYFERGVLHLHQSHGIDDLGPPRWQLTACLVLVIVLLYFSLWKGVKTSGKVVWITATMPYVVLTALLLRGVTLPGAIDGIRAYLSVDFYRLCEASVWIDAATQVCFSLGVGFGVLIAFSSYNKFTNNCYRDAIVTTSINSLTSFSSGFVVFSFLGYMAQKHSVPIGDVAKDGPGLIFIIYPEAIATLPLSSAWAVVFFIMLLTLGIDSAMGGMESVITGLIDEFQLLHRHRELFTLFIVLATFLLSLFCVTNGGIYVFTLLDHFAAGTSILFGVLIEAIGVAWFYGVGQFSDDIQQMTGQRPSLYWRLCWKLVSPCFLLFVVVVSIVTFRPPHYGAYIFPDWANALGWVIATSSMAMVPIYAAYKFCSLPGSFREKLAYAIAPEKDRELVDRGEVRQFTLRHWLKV

[9] = target: 5-Hydroxytryptamine (Serotonin) Receptor 2A (5-HT2A) (Homo sapiens, UniProt P28223); experiment: Calcium flux secondary messenger assay, 5-HT2A; type: cell-based
[10] = target: T5, Muscarinic acetylcholine Receptor M1 (CHRM1) (Homo sapiens, UniProt P11229); experiment: cell-based
T5 sequence (P11229 1-460): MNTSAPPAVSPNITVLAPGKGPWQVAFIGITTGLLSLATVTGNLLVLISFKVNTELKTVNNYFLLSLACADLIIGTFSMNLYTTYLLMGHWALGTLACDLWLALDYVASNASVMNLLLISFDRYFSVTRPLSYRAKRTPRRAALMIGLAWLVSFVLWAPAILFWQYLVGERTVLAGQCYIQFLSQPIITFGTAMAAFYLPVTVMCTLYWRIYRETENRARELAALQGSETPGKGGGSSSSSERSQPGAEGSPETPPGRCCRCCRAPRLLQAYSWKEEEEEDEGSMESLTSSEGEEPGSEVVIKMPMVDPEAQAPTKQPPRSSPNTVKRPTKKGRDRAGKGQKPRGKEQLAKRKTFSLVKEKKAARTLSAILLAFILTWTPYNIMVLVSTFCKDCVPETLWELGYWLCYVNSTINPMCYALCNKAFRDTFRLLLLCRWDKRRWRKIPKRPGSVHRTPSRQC

[11] = target: Histamine Receptor H1 (HRH1) (Homo sapiens, UniProt P35367); experiment: cell-based
Sequence of Histamine Receptor H1 (HRH1) (P35367 whole entry): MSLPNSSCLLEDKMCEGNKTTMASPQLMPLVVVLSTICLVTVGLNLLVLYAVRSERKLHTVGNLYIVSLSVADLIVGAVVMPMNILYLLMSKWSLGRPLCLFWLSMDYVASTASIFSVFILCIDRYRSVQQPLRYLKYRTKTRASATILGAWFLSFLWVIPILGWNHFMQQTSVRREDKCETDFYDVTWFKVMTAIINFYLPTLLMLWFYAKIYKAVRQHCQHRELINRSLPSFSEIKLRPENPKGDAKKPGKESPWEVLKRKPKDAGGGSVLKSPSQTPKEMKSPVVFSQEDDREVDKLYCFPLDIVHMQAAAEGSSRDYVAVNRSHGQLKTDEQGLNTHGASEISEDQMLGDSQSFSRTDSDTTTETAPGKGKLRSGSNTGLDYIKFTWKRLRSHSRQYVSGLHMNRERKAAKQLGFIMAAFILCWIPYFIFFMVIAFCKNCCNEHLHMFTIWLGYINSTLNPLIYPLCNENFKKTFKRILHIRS

[12] = target: T6, CAMP-specific 3′,5′-cyclic phospho-diesterase (PDE4D2) (Homo sapiens, UniProt Q08499); experiment: Enzymatic assay, PDE4D2; type: biochemical
T6 construct: purchased Signal Chem
T6 sequence (Q08499 303-809 limits assumed): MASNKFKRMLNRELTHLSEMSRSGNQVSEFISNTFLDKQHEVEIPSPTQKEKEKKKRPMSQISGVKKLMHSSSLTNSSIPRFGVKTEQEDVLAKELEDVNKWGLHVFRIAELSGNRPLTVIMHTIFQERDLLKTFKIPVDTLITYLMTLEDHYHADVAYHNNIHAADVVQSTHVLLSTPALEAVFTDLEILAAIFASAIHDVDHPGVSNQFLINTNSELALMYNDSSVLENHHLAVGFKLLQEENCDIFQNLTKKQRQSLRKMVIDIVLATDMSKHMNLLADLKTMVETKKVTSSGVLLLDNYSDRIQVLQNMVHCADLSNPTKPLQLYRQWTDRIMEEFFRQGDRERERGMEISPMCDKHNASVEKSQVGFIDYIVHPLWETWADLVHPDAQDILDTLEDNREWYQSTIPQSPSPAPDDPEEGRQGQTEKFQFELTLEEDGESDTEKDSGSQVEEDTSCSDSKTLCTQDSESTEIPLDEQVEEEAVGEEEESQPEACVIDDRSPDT

[13] = target: T7, Insulin Receptor (tyrosine kinase) (INSR) (Homo sapiens, UniProt P06213); experiment: KINOMEscan binding assay, INSR
T7 construct: made in house; host or cells: E. coli BL21-derived host (T7 phage) or HEK-293
T7 sequence (P06213 28-1382): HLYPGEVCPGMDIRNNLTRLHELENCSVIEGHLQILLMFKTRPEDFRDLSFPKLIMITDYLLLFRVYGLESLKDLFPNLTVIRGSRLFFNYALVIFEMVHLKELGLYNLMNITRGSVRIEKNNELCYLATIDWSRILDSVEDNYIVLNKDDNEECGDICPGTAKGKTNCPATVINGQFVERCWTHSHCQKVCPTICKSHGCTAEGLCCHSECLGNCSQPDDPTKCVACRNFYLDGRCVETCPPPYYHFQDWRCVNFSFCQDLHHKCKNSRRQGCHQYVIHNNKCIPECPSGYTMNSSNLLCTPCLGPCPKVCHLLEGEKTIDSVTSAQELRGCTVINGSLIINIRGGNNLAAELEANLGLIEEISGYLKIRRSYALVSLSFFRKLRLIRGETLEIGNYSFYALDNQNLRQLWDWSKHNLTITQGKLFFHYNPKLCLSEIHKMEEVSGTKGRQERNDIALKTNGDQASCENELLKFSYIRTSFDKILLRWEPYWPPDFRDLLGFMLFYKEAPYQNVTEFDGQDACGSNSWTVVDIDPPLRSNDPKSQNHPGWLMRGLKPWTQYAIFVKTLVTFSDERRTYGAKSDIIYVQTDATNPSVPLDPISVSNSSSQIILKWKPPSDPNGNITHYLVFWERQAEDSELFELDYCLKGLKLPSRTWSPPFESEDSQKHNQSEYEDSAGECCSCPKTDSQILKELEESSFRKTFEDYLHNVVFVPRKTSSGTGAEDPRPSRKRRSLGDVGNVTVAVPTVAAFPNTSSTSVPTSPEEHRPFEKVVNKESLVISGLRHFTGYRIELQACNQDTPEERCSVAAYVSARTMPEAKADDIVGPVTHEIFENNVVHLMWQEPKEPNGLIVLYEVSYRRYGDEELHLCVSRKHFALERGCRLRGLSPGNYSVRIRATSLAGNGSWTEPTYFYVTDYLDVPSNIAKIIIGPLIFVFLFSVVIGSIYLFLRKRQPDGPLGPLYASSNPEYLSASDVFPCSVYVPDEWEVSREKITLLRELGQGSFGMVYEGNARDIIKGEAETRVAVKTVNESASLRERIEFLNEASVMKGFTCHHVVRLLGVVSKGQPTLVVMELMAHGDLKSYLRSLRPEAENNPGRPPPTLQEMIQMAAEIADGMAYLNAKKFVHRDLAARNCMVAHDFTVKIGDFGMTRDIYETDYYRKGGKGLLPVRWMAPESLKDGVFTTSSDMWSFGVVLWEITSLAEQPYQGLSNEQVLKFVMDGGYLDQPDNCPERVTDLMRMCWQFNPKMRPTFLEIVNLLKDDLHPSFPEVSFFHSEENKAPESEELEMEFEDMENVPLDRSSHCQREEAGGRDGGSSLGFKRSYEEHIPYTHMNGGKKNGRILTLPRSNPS

Row | SMILES | pEC50 [1] | pIC50 [1] | pIC50 [2] | pIC50 [3] | pEC50 [4] | pIC50 [4] | pEC50 [5] | pIC50 [5] | pEC50 [6] | pIC50 [6] | pEC50 [7] | pIC50 [7] | pIC50 [8] | pEC50 [9] | pIC50 [9] | pEC50 [10] | pIC50 [10] | pEC50 [11] | pIC50 [11] | pIC50 [12] | other results
1 | CNC(C)C(=O)c1c[nH]c2ccc(Br)cc12 (stereo not drawn) [BK-5Br-NM-AMT, 1-(5-bromo-1H-indol-3-yl)-2-(methylamino) propan-1-one hydrochloride] | < 5.00 | < 5.00 | < 5.00 | < 5.00 | < 5.00 | < 5.00 | < 5.00 | < 5.00 | < 5.00 | < 5.00 | < 5.00 | < 5.00 | 5.37 | < 5.00 | 5.06 | < 5.00 | < 5.00 | < 5.00 | < 5.00 | < 5.00 | pIC50 [13]: < 5.00
2 | CNC(C)C(=O)c1c[nH]c2ccc(Cl)cc12 (stereo not drawn) [BK-5Cl-NM-AMT, 1-(5-chloro-1H-indol-3-yl)-2-(methylamino) propan-1-one hydrochloride] | < 5.00 | < 5.00 | < 5.00 | < 5.00 | < 5.00 | < 5.00 | < 5.00 | < 5.00 | < 5.00 | < 5.00 | < 5.00 | < 5.00 | 5.22 | < 5.00 | < 5.00 | < 5.00 | < 5.00 | < 5.00 | < 5.00 | < 5.00 | pIC50 [13]: < 5.00
3 | CNC(C)C(=O)c1c[nH]c2ccc(F)cc12 (stereo not drawn) [BK-5F-NM-AMT, 1-(5-Fluoro-1H-indol-3-yl)-2-(methylamino) propan-1-one hydrochloride] | < 5.00 | < 5.00 | < 5.00 | < 5.00 | < 5.00 | < 5.00 | < 5.00 | < 5.00 | < 5.00 | < 5.00 | < 5.00 | < 5.00 | < 5.00 | < 5.00 | < 5.00 | < 5.00 | < 5.00 | < 5.00 | < 5.00 | < 5.00 | pIC50 [13]: < 5.00
